Where two headings read alike, the source gives them in different places. Each block holds one molecule with its values, some of them ahead of it.
Key:
[1] = Dynamic light scattering (DLS) of compound aggregation; format: physicochemical; conditions: for effect of detergent on aggregation: 0.05% Brij 35; for concentration at which colloidal aggregates form: 20°C; for effect of centrifugation on aggregates: detergent-free buffer, centrifugation (60 min, 16000g)
Method: Dynamic light scattering (DLS) experiments were performed to monitor compound aggregation, using a SpectroLight 610 instrument (Xtal Concepts, Hamburg). The instrument features a laser diode (λ 658 nm) which was set to a power of 100 mW and a scattering angle of 150°. For each sample, five replicates of 60 sec duration were collected at 20°C. Instrument settings, including integration time, were held constant for all experiments. Samples (1 ul) were prepared under mineral oil in 96 well SBS plates. Samples included the same buffer used for enzyme activity assays, with or without Brij 35 (and in all cases without BSA). The compounds were introduced from 100x stocks prepared in DMSO, giving a final DMSO concentration of 1%; samples without compound contained 1% DMSO. The DLS studies were in some cases performed using compound stocks that had been stored at –20°C in DMSO.

APE1 = conditions: cited from earlier work
apo APE1^ΔN38 = target: T1, apo APE1^ΔN38 (Homo sapiens, UniProt P27695); assay: NMR chemical shift perturbation (15N-TROSY), apo APE1; format: binding; conditions: for number of residues with substantial CSPs (Δδ ≥ 0.015 ppm) / sum of CSPs (ΣΔδ) for all assigned APE1 residues / number of residues with relatively strong CSPs (Δδ ≥ 0.03 ppm): apo APE1^ΔN38 0.15 mM, compound 1 mM
T1 construct: Human APE1 lacking the 38 N-terminal residues (APE1^ΔN38); poly-His (N, cleaved yes); made in house; host or cells: E. coli
T1 sequence (P27695 39-318): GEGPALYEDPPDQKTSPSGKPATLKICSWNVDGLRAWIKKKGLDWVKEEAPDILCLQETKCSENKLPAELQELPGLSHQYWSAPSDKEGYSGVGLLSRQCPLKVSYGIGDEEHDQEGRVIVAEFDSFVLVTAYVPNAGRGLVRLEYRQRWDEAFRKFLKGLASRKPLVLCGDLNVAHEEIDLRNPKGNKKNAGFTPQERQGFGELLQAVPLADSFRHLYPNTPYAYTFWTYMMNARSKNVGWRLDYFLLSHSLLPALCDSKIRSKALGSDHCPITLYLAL

[2] = target: T2, Human APE1 lacking the 38 N-terminal residues (APE1^ΔN38) (Homo sapiens, UniProt P27695); assay: APE1 endonuclease activity assay (HPLC, fraction activity); format: biochemical
T2 construct: Human APE1 lacking the 38 N-terminal residues (APE1^ΔN38); poly-His (N, cleaved yes); made in house; host or cells: E. coli
T2 sequence (P27695 39-318): as above

Mg^2+-bound APE1 = target: T3, Mg^2+-bound APE1 (Homo sapiens, UniProt P27695); assay: NMR chemical shift perturbation (15N-TROSY), Mg2+-bound APE1; format: binding; conditions: MgCl2 0.25 mM or 1.0 mM
T3 construct: Human APE1 lacking the 38 N-terminal residues (APE1^ΔN38); poly-His (N, cleaved yes); made in house; host or cells: E. coli
T3 sequence (P27695 39-318): as above
Method: NMR samples (0.55 mL) contained uniformly ^15N-labeled APE1^ΔN38 (0.05 mM to 0.15 mM) in 0.02 M sodium phosphate pH 6.5, 0.1 M NaCl, 0.5 mM DTT, 0.2 mM EDTA, 10% D2O. The compounds were dissolved at 100x concentration in deuterated DMSO (DMSO-D6) and were added to the NMR samples at 1% (v/v) to give the desired compound concentration (and 1% DMSO-D6). Control samples contained APE1 with 1% DMSO-D6. […] NMR data were processed with NMRPipe, and analyzed using NMRFAM-Sparky. The chemical shift perturbation (Δδ) for backbone ^1H-^15N resonances (combined) was calculated (by NMRFAM-Sparky) using Eq 2, Δδ=ΔδH^2+ΔδN/5^2^1/2 (2) where ΔδH and ΔδN are the perturbations for ^1H and ^15N resonances, respectively.
Given the findings above, we sought to investigate whether compounds 6 or 7 might bind to the Mg^2+-bound form of APE1. […] Crystal structures of Mg^2+-bound APE1 have been determined, using crystals grown from a sample of APE1 with 1.0 mM MgCl2, a concentration that is sufficient to fully populate the metal-binding site with Mg^2+ [52, 73]. […]

[3] = test system: enzyme-substrate (ES) complex involving APE1 (28 nM) and AP-DNA (10 nM); set-up: method as in PMID 22455312; conditions: cited from earlier work; for population of AP-DNA bound: 100% in its absence
[4] = Precipitation of compound in NMR samples; format: physicochemical; conditions: NMR buffer pH 6.5
Method: The NMR sample contained 0.03 mM compound 7 and 0.05 mM APE1, giving a molar ratio of 0.6. […] To minimize precipitation of 7, the NMR samples (including DMSO control) contained detergent (0.05% Brij 35) at the same concentration used for the activity assays. […] Thus, the NMR CSP studies provide no evidence that compound 7 binds specifically to apo-APE1. […] In particular, the population of AP-DNA bound was reduced from 100% (absence of 7) to about 30% and 5% in the presence of 7 at a concentration of 0.01 mM and 0.03 mM, respectively, indicating 7 binds with a Kd <0.01 mM to either APE1 or to AP-DNA.

[5] = detergent-free assay buffer, 1% DMSO
[6] = no detergent or BSA, 37°C, read-out: IC50 for APE1 inhibition (prior findings)
[7] = read-out: IC50 for APE1 inhibition (reported)
[8] = 0.05% Brij 35, 0.1 mg/ml BSA, 80 nM DNA substrate, 23°C, 1% DMSO, read-out: IC50 for APE1 inhibition

effect of detergent on aggregation [1]: disrupted by detergent | effect of centrifugation on aggregates [1]: pelleted by centrifugation | number of residues with relatively strong CSPs (Δδ ≥ 0.03 ppm) (apo APE1^ΔN38): 14 | number of residues with substantial CSPs (Δδ ≥ 0.015 ppm) (apo APE1^ΔN38): 20 | sum of CSPs (ΣΔδ) for all assigned APE1 residues (apo APE1^ΔN38): 2.47
SMILES: O=C(O)c1cc2cc([N+](=O)[O-])ccc2[nH]1 [Compound 3, 5-nitroindole-2-carboxylic acid]

effect of detergent on aggregation [1]: disrupted by detergent | concentration at which colloidal aggregates form [1, 5]: ≥ 330 µM | effect of centrifugation on aggregates [1]: pelleted by centrifugation | inhibition of APE1 ([2]; 0.33 mM compound, with detergent (0.05% Brij 35) and BSA): weak inhibition
SMILES: O=c1c(O)c(-c2cc(O)c(O)c(O)c2)oc2cc(O)cc(O)c12 [Compound 5, myricetin]
IC50 (APE1; read-out: IC50 for APE1 inhibition (previous finding)): 0.3 µM

More lines, now with the values behind:

SMILES: O=C(O)c1cc2cccc([N+](=O)[O-])c2[nH]1 [Compound 1, 7-nitroindole-2-carboxylic acid]
effect of detergent on aggregation [1]: disrupted by detergent | concentration at which colloidal aggregates form [1, 5]: 2000 µM | effect of centrifugation on aggregates [1]: pelleted out of solution by centrifugation | IC50 (APE1; [6]): ≤ 10 µM | IC50 (APE1; [7]): 3 µM | number of residues with substantial CSPs (Δδ ≥ 0.015 ppm) (apo APE1^ΔN38): 14 | sum of CSPs (ΣΔδ) for all assigned APE1 residues (apo APE1^ΔN38): 1.19

SMILES: O=C(O)c1cc2cc(F)ccc2[nH]1 [Compound 2, 5-fluoroindole-2-carboxylic acid]
effect of detergent on aggregation [1]: disrupted by detergent | concentrations at which the compound is free of aggregates [1, 5]: below 3 mM | concentration at which colloidal aggregates form [1, 5]: 10000 µM | effect of centrifugation on aggregates [1]: pelleted by centrifugation | IC50 (APE1; [6]): ≤ 10 µM | IC50 (APE1; [7]): 10 µM | number of residues with substantial CSPs (Δδ ≥ 0.015 ppm) (apo APE1^ΔN38): ten | sum of CSPs (ΣΔδ) for all assigned APE1 residues (apo APE1^ΔN38): 1.31

SMILES: O=C(O)c1cc2ccc(Br)cc2[nH]1 [Compound 4, 6-bromoindole-2-carboxylic acid]
effect of detergent on aggregation [1]: disrupted by detergent | concentration at which colloidal aggregates form [1, 5]: ≥ 1000 µM | effect of centrifugation on aggregates [1]: pelleted by centrifugation | number of residues with relatively strong CSPs (Δδ ≥ 0.03 ppm) (apo APE1^ΔN38): eight | number of residues with substantial CSPs (Δδ ≥ 0.015 ppm) (apo APE1^ΔN38): 22 | sum of CSPs (ΣΔδ) for all assigned APE1 residues (apo APE1^ΔN38): 2.54

SMILES: Cc1cc(C)c2c(N)c3cccc(C)c3nc2n1 [Compound 6]
CSPs (Δδ >0.015 ppm) for any residue of Mg2+-bound APE1 (Mg^2+-bound APE1; compound 0.30 mM, APE1 0.10 mM): does not induce CSPs | slope factor of the dependence of FA on compound concentration ([2]; 0.05% Brij 35, 0.1 mg/ml BSA): 1.5 ± 0.2 | IC50 [2, 8]: 3.1 ± 0.3 µM | IC50 ([2]; as restated in the NMR section, read-out: IC50 observed here): 3 µM | IC50 (APE1; read-out: IC50 for APE1 inhibition in vitro (previous finding)): 2 µM | residues exhibiting Δδ >0.015 ppm (apo APE1^ΔN38; 0.10 mM apo APE1, 0.30 mM compound): no residues

SMILES: CC(=O)Nc1sc2c(c1-c1nc3ccccc3s1)CCN(C(C)C)C2 [Compound 7, N-(3-(benzo[d]-thiazol-2-yl)-6-isopropyl-4,5,6,7-tetrahydrothieno[2,3-c]-pyridin-2-yl)acetamide]
population of AP-DNA bound ([3]; compound 0.01 mM): about 30% | population of AP-DNA bound ([3]; compound 0.03 mM): ~ 5% | Kd ([3]; inferred from the previous EMSA results, read-out: Kd for binding to either APE1 or AP-DNA): < 10 µM | CSPs (Δδ >0.015 ppm) for any backbone residue of Mg2+-bound APE1 (Mg^2+-bound APE1; compound 0.030 mM, APE1 0.05 mM, 0.05% Brij 35): fails to induce CSPs | slope factor of the dependence of FA on compound concentration ([2]; 0.05% Brij 35, 0.1 mg/ml BSA): 1.2 ± 0.1 | IC50 [2, 8]: 8.1 ± 0.6 µM | concentration at which the compound precipitates in NMR samples [4]: ≥ 90 µM | residues exhibiting Δδ >0.015 ppm (apo APE1^ΔN38; 0.05 mM apo APE1, 0.03 mM compound, 0.05% Brij 35): two | Kd (apo APE1^ΔN38; inferred from the absence of a detectible interaction, apo-APE1 0.05 mM, compound 0.03 mM, read-out: Kd for binding to apo-APE1): > 30 µM

Reference: paper PMC9847973, “Characterizing inhibitors of human AP endonuclease 1” (PLOS ONE, 2023)
